Where “and” joins values, the source holds several entries; their conditions need not be identical. Equal values may be shown once. Inconclusive results and toxic doses are left out.
Test system: CD2F1 mice, L1210 leukemia ip, survival T/C
Test: NCI In Vivo Anticancer Drug Screen. Data for tumor model L1210 Leukemia (intraperitoneal) in CD2F1 (CDF1) mice
Conditions: endpoint: mean survival time, higher = longer survival
Outline: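 Read-out first: treated-group measurement over vehicle-control measurement, expressed as a ratio. Animals bore a transplanted tumor line and were dosed with compound or vehicle.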

[1] = dose: 12.5 mg/kg/injection, schedule: Q04DX003 (ip), vehicle: saline with Tween-80
[2] = dose: 25.0 mg/kg/injection, schedule: Q04DX003 (ip), vehicle: saline with Tween-80
[3] = dose: 50.0 mg/kg/injection, schedule: Q04DX003 (ip), vehicle: saline with Tween-80
[4] = dose: 100.0 mg/kg/injection, schedule: Q01DX001 (ip), vehicle: saline with Tween-80
[5] = dose: 200.0 mg/kg/injection, schedule: Q01DX001 (ip), vehicle: saline with Tween-80
[6] = dose: 400.0 mg/kg/injection, schedule: Q01DX001 (ip), vehicle: saline with Tween-80
[7] = dose: 100.0 mg/kg/injection, schedule: Q04DX003 (ip), vehicle: saline with Tween-80
[8] = dose: 200.0 mg/kg/injection, schedule: Q04DX003 (ip), vehicle: saline with Tween-80
[9] = dose: 400.0 mg/kg/injection, schedule: Q04DX003 (ip), vehicle: saline with Tween-80

For `C=CC(CN1CC1)OC(C)=O` (stereo unspecified), the T/C (dose: 2.5 mg/kg/injection, schedule: Q03DX003 (ip), vehicle: saline) was 107 % of control, the T/C (dose: 2.5 mg/kg/injection, schedule: Q04DX003 (ip), vehicle: saline) was 100 % of control and the T/C (dose: 3.75 mg/kg/injection, schedule: Q01DX009 (ip), vehicle: saline) was 159 % of control. For the same compound, the T/C (dose: 5.0 mg/kg/injection, schedule: Q01DX007 (ip), vehicle: saline) was 172 % of control, the T/C (dose: 5.0 mg/kg/injection, schedule: Q01DX009 (ip), vehicle: saline) was 160 % of control and the T/C (dose: 5.0 mg/kg/injection, schedule: Q03DX003 (ip), vehicle: saline) was 121 % of control. For the same compound, the T/C (dose: 5.0 mg/kg/injection, schedule: Q04DX003 (ip), vehicle: saline) was 111 % of control, the T/C (dose: 7.5 mg/kg/injection, schedule: Q01DX009 (ip), vehicle: saline) was 206 % of control and 249 % of control and the T/C (dose: 10.0 mg/kg/injection, schedule: Q04DX003 (ip), vehicle: saline) was 153 % of control. The T/C (dose: 30.0 mg/kg/injection, schedule: Q01DX009 (ip), vehicle: saline) was 91 % of control.

With `C/C=C(\C(=C\C)c1ccc(OC(=O)c2ccccc2)c(C2CCCCC2)c1)c1ccc(O)c(C2CCCCC2)c1` the T/C (dose: 75.0 mg/kg/injection, schedule: Q01DX001 (ip), vehicle: saline) was 95 % of control, the T/C (dose: 150.0 mg/kg/injection, schedule: Q01DX001 (ip), vehicle: saline) was 95 % of control and the T/C (dose: 300.0 mg/kg/injection, schedule: Q01DX001 (ip), vehicle: saline) was 103 % of control.

For `NC(=S)N/N=C/c1cccc(CC(O)(C(F)(F)F)C(F)(F)F)n1`, the T/C [1] was 97 % of control, the T/C [2] was 94 % of control and the T/C [3] was 96 % of control.

In the case of `O=C(NCCCl)Nc1ccccc1Cl`, the T/C [4] is reported as 90 % of control, the T/C [5] is reported as 94 % of control and the T/C [6] is reported as 98 % of control.

In the case of `Cc1ccc(CNc2ccc(C)c(Cl)c2)cc1`, the T/C (dose: 100.0 mg/kg/injection, schedule: Q04DX003 (ip), vehicle: other) is reported as 101 % of control, the T/C (dose: 200.0 mg/kg/injection, schedule: Q04DX003 (ip), vehicle: other) is reported as 97 % of control and the T/C (dose: 400.0 mg/kg/injection, schedule: Q04DX003 (ip), vehicle: other) is reported as 96 % of control.

In the case of `CN=C(N)c1ccc(N=C(N)c2ccc(N=C(N)c3ccc(NC(=O)c4ccc(C(=O)Nc5ccc(C(N)=Nc6ccc(C(N)=Nc7ccc(C(N)=NC)cc7)cc6)cc5)cc4)cc3)cc2)cc1`, the T/C (dose: 62.5 mg/kg/injection, schedule: Q01DX Z (ip), vehicle: water) is reported as 111 % of control.

With `C=C1c2ccccc2C=NN1c1ccccc1` the T/C (dose: 100.0 mg/kg/injection, schedule: Q01DX001 (ip), vehicle: other) was 94 % of control, the T/C (dose: 200.0 mg/kg/injection, schedule: Q01DX001 (ip), vehicle: other) was 88 % of control and the T/C (dose: 400.0 mg/kg/injection, schedule: Q01DX001 (ip), vehicle: other) was 92 % of control.

In the case of `Cc1ccc(Cl)cc1NC(=O)c1c(Br)c(Br)c(Br)c(Br)c1C(=O)O`, the T/C [4] is reported as 106 % of control, the T/C [5] is reported as 110 % of control and the T/C [6] is reported as 108 % of control.

`COc1cc(NCCCCN2C(=O)c3ccccc3C2=O)c2ncccc2c1` was tested, and the T/C [7] was 97 % of control, the T/C [8] was 102 % of control and the T/C [9] was 96 % of control.

`Cc1cc(N2C(=O)CCSC2=S)ccc1Cl` was tested, and the T/C (dose: 12.5 mg/kg/injection, schedule: Q01DX009 (ip), vehicle: Klucel (hydroxypropylcellulose) (HPC)) was 101 % of control and 105 % of control, the T/C (dose: 25.0 mg/kg/injection, schedule: Q01DX009 (ip), vehicle: Klucel (hydroxypropylcellulose) (HPC)) was 95 % of control and 103 % of control and 109 % of control and the T/C (dose: 50.0 mg/kg/injection, schedule: Q01DX009 (ip), vehicle: Klucel (hydroxypropylcellulose) (HPC)) was 113 % of control and 97 % of control. The T/C (dose: 100.0 mg/kg/injection, schedule: Q01DX009 (ip), vehicle: Klucel (hydroxypropylcellulose) (HPC)) was 122 % of control and 123 % of control and 97 % of control, the T/C (dose: 200.0 mg/kg/injection, schedule: Q01DX009 (ip), vehicle: Klucel (hydroxypropylcellulose) (HPC)) was 95 % of control and 107 % of control and the T/C (dose: 400.0 mg/kg/injection, schedule: Q01DX009 (ip), vehicle: Klucel (hydroxypropylcellulose) (HPC)) was 102 % of control.

With `c1ccc2c(c1)CCCN2` the T/C (dose: 31.5 mg/kg/injection, schedule: Q04DX003 (ip), vehicle: saline with Tween-80) was 98 % of control, the T/C [3] was 102 % of control and the T/C (dose: 63.0 mg/kg/injection, schedule: Q04DX003 (ip), vehicle: saline with Tween-80) was 98 % of control. For the same compound, the T/C [7] was 102 % of control, the T/C (dose: 125.0 mg/kg/injection, schedule: Q04DX003 (ip), vehicle: saline with Tween-80) was 106 % of control and the T/C [8] was 93 % of control. The T/C [9] was 86 % of control.

With `Cl` the T/C (dose: 6.25 mg/kg/injection, schedule: Q01DX009 (ip), vehicle: saline sonified) was 103 % of control, the T/C (dose: 6.25 mg/kg/injection, schedule: Q04DX003 (ip), vehicle: saline with Tween-80) was 100 % of control and the T/C (dose: 12.5 mg/kg/injection, schedule: Q01DX009 (ip), vehicle: saline sonified) was 101 % of control. The T/C [1] was 98 % of control, the T/C (dose: 25.0 mg/kg/injection, schedule: Q01DX009 (ip), vehicle: saline sonified) was 106 % of control and the T/C [2] was 98 % of control.
